Assay results as given in the supplement of paper PMC13380429.

Key:
[1] = test system: A549-ACE2 infected with SARS-CoV-2; assay: cell count relative to DMSO; higher = less toxic; conditions: 24 h
Caco-2 [2] = assay: cell viability relative to DMSO; higher = less toxic; conditions: 72 h
Calu-3 [3] = assay: as above; conditions: 72 h
HepG2 [4] = assay: as above; conditions: 72 h
U2OS [5] = assay: as above; conditions: 72 h
Vero E6 [6] = assay: as above; conditions: 72 h
[7] = test system: A549-ACE2 infected with SARS-CoV-2; assay: SARS-CoV-2 infection rate relative to DMSO; higher = more infection; conditions: 24 h
A549-ACE2 [8] = assay: drug-induced phospholipidosis relative to tamoxifen; higher = more phospholipidosis
[9] = test system: A549-ACE2 infected with SARS-CoV-2; assay: morphology score (similarity to uninfected cells); higher = more like uninfected cells; conditions: 24 h
HepG2 [10] = assay: relative viability EC50 (midpoint between 100% and the lowest measured viability); higher = less toxic; conditions: 72 h
Vero E6 [11] = assay: as above; conditions: 72 h
Caco-2 [12] = assay: drug sensitivity score (DSS) for viability; higher = more toxic; extreme values may be limits of the assay; conditions: 72 h
Calu-3 [13] = assay: as above; conditions: 72 h
HepG2 [14] = assay: as above; conditions: 72 h
U2OS [15] = assay: as above; conditions: 72 h
Vero E6 [16] = assay: as above; conditions: 72 h
A549-ACE2 [17] = assay: phospholipidosis EC50; higher = less potent phospholipidosis inducer
Caco-2 [18] = assay: relative viability EC50 (midpoint between 100% and the lowest measured viability); higher = less toxic; conditions: 72 h
Calu-3 [19] = assay: as above; conditions: 72 h
U2OS [20] = assay: as above; conditions: 72 h

CC(C)Oc1ccc(-c2nc(-c3cccc4c3CC[C@@H]4NCCO)no2)cc1C#N [ozanimod]
Conditions | SARS-CoV-2 infection rate, [7] [%] | cell count, [1] [%] | cell viability, Caco-2 [2] [%] | cell viability, Calu-3 [3] [%] | cell viability, HepG2 [4] [%] | cell viability, U2OS [5] [%] | cell viability, Vero E6 [6] [%] | morphology score, [9]
1 nM | – | – | 95.2 | 94.5 | 120 | 95.2 | 103 | –
10 nM | – | – | 75.2 | 87.2 | 101 | 105 | 96.1 | –
0.1 µM | 96 | 104 | – | – | – | – | – | 0.14
100 nM | – | – | 69.7 | 93.3 | 106 | 94.9 | 102 | –
0.3 µM | 111 | 100 | – | – | – | – | – | 0.03
1 µM | 91 | 100 | – | – | – | – | – | 0.33
1000 nM | – | – | 77.6 | 96.6 | 100 | 97.8 | 103 | –
3 µM | 44 | 114 | – | – | – | – | – | 0.77
10000 nM | – | – | 73 | 73.1 | 44.4 | 72.2 | 76.7 | –

drug-induced phospholipidosis [%], A549-ACE2 [8]
Conditions | 0.3 µM | 0.833333 µM | 3.33333 µM | 6.66667 µM | 10 µM
24 h | 6.09 | 18 | 72.5 | 83.5 | 92.3
48 h | -8.87 | 1.18 | 67.1 | 90.1 | 96.7
72 h | -6.97 | 0.974 | 62.1 | 108 | 122

Conditions | drug sensitivity score | relative viability EC50 [µM]
Caco-2 [12] | 12.1 | –
Calu-3 [13] | 1.6 | –
HepG2 [10] | – | 3.17
HepG2 [14] | 3 | –
U2OS [15] | 1.5 | –
Vero E6 [11] | – | > 10
Vero E6 [16] | 0.6 | –

O=S(=O)(NCC1CC1)c1ccc(Nc2nccc(N3CCCc4cc(O)ccc43)n2)cc1 [pyrintegrin]
Conditions | SARS-CoV-2 infection rate [%] | cell count [%] | cell viability [%] | morphology score | phospholipidosis EC50 [µM]
A549-ACE2 [17], 24 h | – | – | – | – | 1.91
Caco-2 [2], 1 nM | – | – | 98.1 | – | –
Caco-2 [2], 10 nM | – | – | 102 | – | –
Caco-2 [2], 100 nM | – | – | 100 | – | –
Caco-2 [2], 1000 nM | – | – | 110 | – | –
Caco-2 [2], 10000 nM | – | – | 86.2 | – | –
Calu-3 [3], 1 nM | – | – | 95.5 | – | –
Calu-3 [3], 10 nM | – | – | 89.7 | – | –
Calu-3 [3], 100 nM | – | – | 92.8 | – | –
Calu-3 [3], 1000 nM | – | – | 102 | – | –
Calu-3 [3], 10000 nM | – | – | 85 | – | –
HepG2 [4], 1 nM | – | – | 102 | – | –
HepG2 [4], 10 nM | – | – | 103 | – | –
HepG2 [4], 100 nM | – | – | 107 | – | –
HepG2 [4], 1000 nM | – | – | 66.6 | – | –
HepG2 [4], 10000 nM | – | – | 15.5 | – | –
U2OS [5], 1 nM | – | – | 99 | – | –
U2OS [5], 10 nM | – | – | 97 | – | –
U2OS [5], 100 nM | – | – | 97.8 | – | –
U2OS [5], 1000 nM | – | – | 96 | – | –
U2OS [5], 10000 nM | – | – | 62.4 | – | –
Vero E6 [6], 1 nM | – | – | 90.5 | – | –
Vero E6 [6], 10 nM | – | – | 93.9 | – | –
Vero E6 [6], 100 nM | – | – | 98.9 | – | –
Vero E6 [6], 1000 nM | – | – | 98.3 | – | –
Vero E6 [6], 10000 nM | – | – | 75.3 | – | –
[1], 0.1 µM | – | 104 | – | – | –
[1], 0.3 µM | – | 106 | – | – | –
[1], 1 µM | – | 107 | – | – | –
[1], 3 µM | – | 86 | – | – | –
[7], 0.1 µM | 104 | – | – | – | –
[7], 0.3 µM | 103 | – | – | – | –
[7], 1 µM | 81 | – | – | – | –
[7], 3 µM | 60 | – | – | – | –
[9], 0.1 µM | – | – | – | 0.18 | –
[9], 0.3 µM | – | – | – | 0.28 | –
[9], 1 µM | – | – | – | 0.52 | –
[9], 3 µM | – | – | – | 0.4 | –

drug-induced phospholipidosis [%], A549-ACE2 [8]
Conditions | 0.3 µM | 0.833333 µM | 3.33333 µM | 6.66667 µM | 10 µM
24 h | 5.15 | 22.5 | 132 | 178 | 150
48 h | 3.16 | 12.3 | 135 | – | –
72 h | 2.43 | 7.41 | – | – | –

Conditions | drug sensitivity score | relative viability EC50 [µM]
Caco-2 [12] | 0 | –
Caco-2 [18] | – | > 10
Calu-3 [13] | 0.1 | –
Calu-3 [19] | – | > 10
HepG2 [10] | – | 1.19
HepG2 [14] | 9.2 | –
U2OS [15] | 2.5 | –
Vero E6 [11] | – | > 10
Vero E6 [16] | 1.2 | –

Cc1nc(Nc2ccc(F)cc2)nc(N2CCc3ccccc3C2C)c1C (stereo unspecified) [revaprazan]
Conditions | SARS-CoV-2 infection rate, [7] [%] | cell count, [1] [%] | cell viability, Caco-2 [2] [%] | cell viability, Calu-3 [3] [%] | cell viability, HepG2 [4] [%] | cell viability, U2OS [5] [%] | cell viability, Vero E6 [6] [%] | morphology score, [9]
1 nM | – | – | 98.3 | 97.5 | 98.2 | 101 | 90.2 | –
10 nM | – | – | 96.7 | 102 | 106 | 100 | 106 | –
100 nM | – | – | 104 | 106 | 96.3 | 102 | 92.7 | –
0.3 µM | 91 | 105 | – | – | – | – | – | 0.16
1000 nM | – | – | 97.6 | 92 | 110 | 97.1 | 98.1 | –
3 µM | 61 | 110 | – | – | – | – | – | 0.59
10 µM | 33 | 115 | – | – | – | – | – | 0.78
10000 nM | – | – | 71.6 | 99.8 | 60.4 | 81.5 | 95.8 | –
30 µM | 19 | 99 | – | – | – | – | – | 0.77

drug-induced phospholipidosis [%], A549-ACE2 [8]
Conditions | 0.3 µM | 0.833333 µM | 3.33333 µM | 6.66667 µM | 10 µM | 30 µM
24 h | 0.84 | 3.77 | 8.66 | 7.71 | 18.8 | 34.5
48 h | 2.14 | 1.27 | 2.71 | 2.07 | 8.48 | 17.2
72 h | 2.77 | -0.285 | 3.45 | 3.85 | 13.8 | 30.9

Conditions | drug sensitivity score | relative viability EC50 [µM]
Caco-2 [12] | 1.6 | –
Calu-3 [13] | 0 | –
Calu-3 [19] | – | > 10
HepG2 [14] | 1.5 | –
U2OS [15] | 0.8 | –
U2OS [20] | – | > 10
Vero E6 [11] | – | > 10
Vero E6 [16] | 0 | –

CCCCCCCCNC(C)C(O)c1ccc(SC(C)C)cc1 (stereo unspecified) [suloctidil]
Conditions | SARS-CoV-2 infection rate [%] | cell count [%] | cell viability [%] | morphology score | phospholipidosis EC50 [µM]
A549-ACE2 [17], 24 h | – | – | – | – | 7.11
A549-ACE2 [17], 48 h | – | – | – | – | 9.12
A549-ACE2 [17], 72 h | – | – | – | – | 12.5
Caco-2 [2], 1 nM | – | – | 105 | – | –
Caco-2 [2], 10 nM | – | – | 97.3 | – | –
Caco-2 [2], 100 nM | – | – | 99.4 | – | –
Caco-2 [2], 1000 nM | – | – | 101 | – | –
Caco-2 [2], 10000 nM | – | – | 92.6 | – | –
Calu-3 [3], 1 nM | – | – | 99.4 | – | –
Calu-3 [3], 10 nM | – | – | 97.1 | – | –
Calu-3 [3], 100 nM | – | – | 107 | – | –
Calu-3 [3], 1000 nM | – | – | 57 | – | –
Calu-3 [3], 10000 nM | – | – | -0.5 | – | –
HepG2 [4], 1 nM | – | – | 98.7 | – | –
HepG2 [4], 10 nM | – | – | 109 | – | –
HepG2 [4], 100 nM | – | – | 98.5 | – | –
HepG2 [4], 1000 nM | – | – | 119 | – | –
HepG2 [4], 10000 nM | – | – | 102 | – | –
U2OS [5], 1 nM | – | – | 98.2 | – | –
U2OS [5], 10 nM | – | – | 95 | – | –
U2OS [5], 100 nM | – | – | 99.7 | – | –
U2OS [5], 1000 nM | – | – | 95.5 | – | –
U2OS [5], 10000 nM | – | – | 64.5 | – | –
Vero E6 [6], 1 nM | – | – | 93.8 | – | –
Vero E6 [6], 10 nM | – | – | 98.3 | – | –
Vero E6 [6], 100 nM | – | – | 93 | – | –
Vero E6 [6], 1000 nM | – | – | 98.3 | – | –
Vero E6 [6], 10000 nM | – | – | 97.4 | – | –
[1], 0.3 µM | – | 102 | – | – | –
[1], 3 µM | – | 112 | – | – | –
[1], 10 µM | – | 122 | – | – | –
[1], 30 µM | – | 65 | – | – | –
[7], 0.3 µM | 99 | – | – | – | –
[7], 3 µM | 83 | – | – | – | –
[7], 10 µM | 26 | – | – | – | –
[7], 30 µM | 25 | – | – | – | –
[9], 0.3 µM | – | – | – | 0.02 | –
[9], 3 µM | – | – | – | 0.31 | –
[9], 10 µM | – | – | – | 0.74 | –
[9], 30 µM | – | – | – | 0.13 | –

drug-induced phospholipidosis [%], A549-ACE2 [8]
Conditions | 0.3 µM | 0.833333 µM | 3.33333 µM | 6.66667 µM | 10 µM | 30 µM
24 h | 2.27 | 1.81 | 10.5 | 42.2 | 60 | 84.3
48 h | 4.05 | 0.83 | 9.1 | 35.5 | 57 | 95.6
72 h | 3.93 | -1.43 | 8.76 | 31.3 | 53.9 | 114

Conditions | drug sensitivity score | relative viability EC50 [µM]
Caco-2 [12] | 0 | –
Caco-2 [18] | – | > 10
Calu-3 [13] | 11.1 | –
Calu-3 [19] | – | 1.12
HepG2 [10] | – | > 10
HepG2 [14] | 0 | –
U2OS [15] | 2.4 | –
Vero E6 [11] | – | > 10
Vero E6 [16] | 0 | –
